Source: ChEMBL document CHEMBL5724806, “Unraveling interindividual differences and functional consequences of gut microbial metabolism of immunosuppressants” (2024)

How the values were obtained:
Assay type in all cases: ADME
[1] = (§1) The drug is tested on the gut metagenome community of A-03 with ENA study accession number: PRJEB31790 for biotransformation under anaerobic condition. The drug concentrations were measured over 7 timepoints collected between 0 and 12 hours of incubation by liquid-chromatography-coupled mass spectrometry (LC–MS); set-up: dose 5 uM, timepoint 0, 0.75, 1.5, 3, 6, 9, 12 hours; details: 5 µM
[2] = as §1, with “A-09” for “A-03”; set-up: dose 5 uM, timepoint 0, 0.75, 1.5, 3, 6, 9, 12 hours; details: 5 µM
[3] = as §1, with “T-03” for “A-03”, “microaerobic” for “anaerobic”; set-up: dose 5 uM, timepoint 0, 0.75, 1.5, 3, 6, 9, 12 hours; details: 5 µM
[4] = The drug is tested on Collinsella aerofaciens strain: DSM3979 for biotransformation under anaerobic condition. The drug concentrations were measured over 6 timepoints collected between 0 and 12 hours of incubation by liquid-chromatography-coupled mass spectrometry (LC–MS); set-up: dose 5 uM, timepoint 0, 1.5, 3, 6, 9, 12 hours; details: 5 µM
[5] = as §1, with “T-01” for “A-03”; set-up: dose 5 uM, timepoint 0, 0.75, 1.5, 3, 6, 9, 12 hours; details: 5 µM
[6] = as §1, with “A-08” for “A-03”, “microaerobic” for “anaerobic”; set-up: dose 5 uM, timepoint 0, 0.75, 1.5, 3, 6, 9, 12 hours; details: 5 µM
[7] = as §1, with “A-10” for “A-03”; set-up: dose 5 uM, timepoint 0, 0.75, 1.5, 3, 6, 9, 12 hours; details: 5 µM
[8] = The drug is tested on Streptococcus sanguinis strain: DSM20567 for biotransformation under anaerobic condition. The drug concentrations were measured over 6 timepoints collected between 0 and 12 hours of incubation by liquid-chromatography-coupled mass spectrometry (LC–MS); set-up: dose 5 uM, timepoint 0, 1.5, 3, 6, 9, 12 hours; details: 5 µM
[9] = The drug is tested on Parabacteroides distasonis strain: DSM20701 for biotransformation under anaerobic condition. The drug concentrations were measured over 6 timepoints collected between 0 and 12 hours of incubation by liquid-chromatography-coupled mass spectrometry (LC–MS); set-up: dose 5 uM, timepoint 0, 1.5, 3, 6, 9, 12 hours; details: 5 µM
[10] = The drug is tested on Coprococcus comes strain: ATCC27758 for biotransformation under anaerobic condition. The drug concentrations were measured over 6 timepoints collected between 0 and 12 hours of incubation by liquid-chromatography-coupled mass spectrometry (LC–MS); set-up: dose 5 uM, timepoint 0, 1.5, 3, 6, 9, 12 hours; details: 5 µM
[11] = The drug is tested on Bifidobacterium longum strain: DSM20088 for biotransformation under anaerobic condition. The drug concentrations were measured over 6 timepoints collected between 0 and 12 hours of incubation by liquid-chromatography-coupled mass spectrometry (LC–MS); set-up: dose 5 uM, timepoint 0, 1.5, 3, 6, 9, 12 hours; details: 5 µM
[12] = The drug is tested on Streptococcus mitis strain: DSM12643 for biotransformation under anaerobic condition. The drug concentrations were measured over 6 timepoints collected between 0 and 12 hours of incubation by liquid-chromatography-coupled mass spectrometry (LC–MS); set-up: dose 5 uM, timepoint 0, 1.5, 3, 6, 9, 12 hours; details: 5 µM
[13] = The drug is tested on Streptococcus salivarius strain: DSM20560 for biotransformation under microaerobic condition. The drug concentrations were measured over 6 timepoints collected between 0 and 12 hours of incubation by liquid-chromatography-coupled mass spectrometry (LC–MS); set-up: dose 5 uM, timepoint 0, 1.5, 3, 6, 9, 12 hours; details: 5 µM
[14] = The drug is tested on Lactobacillus paracasei strain: ATCC27092 for biotransformation under anaerobic condition. The drug concentrations were measured over 6 timepoints collected between 0 and 12 hours of incubation by liquid-chromatography-coupled mass spectrometry (LC–MS); set-up: dose 5 uM, timepoint 0, 1.5, 3, 6, 9, 12 hours; details: lacticaseibacillus paracasei, 5 µM
[15] = The drug is tested on Bacteroides caccae strain: DSM19024 for biotransformation under anaerobic condition. The drug concentrations were measured over 6 timepoints collected between 0 and 12 hours of incubation by liquid-chromatography-coupled mass spectrometry (LC–MS); set-up: dose 5 uM, timepoint 0, 1.5, 3, 6, 9, 12 hours; details: 5 µM
[16] = The drug is tested on Gemella morbillorum strain: DSM20572 for biotransformation under microaerobic condition. The drug concentrations were measured over 6 timepoints collected between 0 and 12 hours of incubation by liquid-chromatography-coupled mass spectrometry (LC–MS); set-up: dose 5 uM, timepoint 0, 1.5, 3, 6, 9, 12 hours; details: 5 µM
[17] = as §1, with “P-01” for “A-03”, “microaerobic” for “anaerobic”; set-up: dose 5 uM, timepoint 0, 0.75, 1.5, 3, 6, 9, 12 hours; details: 5 µM
[18] = The drug is tested on Bacteroides stercoris strain: HM 1036 for biotransformation under anaerobic condition. The drug concentrations were measured over 6 timepoints collected between 0 and 12 hours of incubation by liquid-chromatography-coupled mass spectrometry (LC–MS); set-up: dose 5 uM, timepoint 0, 1.5, 3, 6, 9, 12 hours; details: 5 µM
[19] = as §1, with “A-02” for “A-03”; set-up: dose 5 uM, timepoint 0, 0.75, 1.5, 3, 6, 9, 12 hours; details: 5 µM
[20] = The drug is tested on Streptococcus anginosus strain: DSM20563 for biotransformation under microaerobic condition. The drug concentrations were measured over 6 timepoints collected between 0 and 12 hours of incubation by liquid-chromatography-coupled mass spectrometry (LC–MS); set-up: dose 5 uM, timepoint 0, 1.5, 3, 6, 9, 12 hours; details: 5 µM
[21] = as §1, with “A-07” for “A-03”; set-up: dose 5 uM, timepoint 0, 0.75, 1.5, 3, 6, 9, 12 hours; details: 5 µM
[22] = The drug is tested on Lactobacillus gasseri strain: DSM20243 for biotransformation under anaerobic condition. The drug concentrations were measured over 6 timepoints collected between 0 and 12 hours of incubation by liquid-chromatography-coupled mass spectrometry (LC–MS); set-up: dose 5 uM, timepoint 0, 1.5, 3, 6, 9, 12 hours; details: 5 µM
[23] = The drug is tested on Lactobacillus reuteri strain: DSM20016 for biotransformation under microaerobic condition. The drug concentrations were measured over 6 timepoints collected between 0 and 12 hours of incubation by liquid-chromatography-coupled mass spectrometry (LC–MS); set-up: dose 5 uM, timepoint 0, 1.5, 3, 6, 9, 12 hours; details: limosilactobacillus reuteri, 5 µM
[24] = as §1, with “P-04” for “A-03”, “microaerobic” for “anaerobic”; set-up: dose 5 uM, timepoint 0, 0.75, 1.5, 3, 6, 9, 12 hours; details: 5 µM
[25] = The drug is tested on Lactobacillus paracasei strain: ATCC27092 for biotransformation under microaerobic condition. The drug concentrations were measured over 6 timepoints collected between 0 and 12 hours of incubation by liquid-chromatography-coupled mass spectrometry (LC–MS); set-up: dose 5 uM, timepoint 0, 1.5, 3, 6, 9, 12 hours; details: lacticaseibacillus paracasei, 5 µM
[26] = The drug is tested on Eubacterium hallii strain: DSM3353 for biotransformation under anaerobic condition. The drug concentrations were measured over 6 timepoints collected between 0 and 12 hours of incubation by liquid-chromatography-coupled mass spectrometry (LC–MS); set-up: dose 5 uM, timepoint 0, 1.5, 3, 6, 9, 12 hours; details: anaerobutyricum hallii, 5 µM
[27] = The drug is tested on Eubacterium eligens strain: DSM3376 for biotransformation under anaerobic condition. The drug concentrations were measured over 6 timepoints collected between 0 and 12 hours of incubation by liquid-chromatography-coupled mass spectrometry (LC–MS); set-up: dose 5 uM, timepoint 0, 1.5, 3, 6, 9, 12 hours; details: lachnospira eligens, 5 µM
[28] = The drug is tested on Lactobacillus gasseri strain: DSM20243 for biotransformation under microaerobic condition. The drug concentrations were measured over 6 timepoints collected between 0 and 12 hours of incubation by liquid-chromatography-coupled mass spectrometry (LC–MS); set-up: dose 5 uM, timepoint 0, 1.5, 3, 6, 9, 12 hours; details: 5 µM
[29] = The drug is tested on Ruminococcus gnavus strain: ATCC29149 for biotransformation under anaerobic condition. The drug concentrations were measured over 6 timepoints collected between 0 and 12 hours of incubation by liquid-chromatography-coupled mass spectrometry (LC–MS); set-up: dose 5 uM, timepoint 0, 1.5, 3, 6, 9, 12 hours; details: mediterraneibacter gnavus, 5 µM
[30] = as §1, with “A-05” for “A-03”, “microaerobic” for “anaerobic”; set-up: dose 5 uM, timepoint 0, 0.75, 1.5, 3, 6, 9, 12 hours; details: 5 µM

Bacterial Biotransformation [1]	Bacterial Biotransformation [2]	Bacterial Biotransformation [3]	Bacterial Biotransformation [4]	Bacterial Biotransformation [5]	Bacterial Biotransformation [6]	Bacterial Biotransformation [7]	Bacterial Biotransformation [8]	Bacterial Biotransformation [9]	Bacterial Biotransformation [10]	Bacterial Biotransformation [11]	Bacterial Biotransformation [12]	Bacterial Biotransformation [13]	Bacterial Biotransformation [14]	Bacterial Biotransformation [15]	Bacterial Biotransformation [16]	Bacterial Biotransformation [17]	Bacterial Biotransformation [18]	Bacterial Biotransformation [19]	Bacterial Biotransformation [20]	Structure (SMILES)	also measured
Compound metabolized	Compound metabolized	Compound metabolized	Compound metabolized	Compound metabolized	Compound metabolized	Compound metabolized	Compound metabolized	Compound metabolized	Compound NOT metabolized	Compound metabolized	Compound metabolized	Compound metabolized	Compound metabolized	Compound metabolized	Compound NOT metabolized	Compound metabolized	Compound metabolized	Compound metabolized	Compound metabolized	COc1c(C)c2c(c(O)c1C/C=C(\C)CCC(=O)OCCN1CCOCC1)C(=O)OC2 [MYCOPHENOLATE MOFETIL]	Bacterial Biotransformation [21]: Compound metabolized; Bacterial Biotransformation [22]: Compound metabolized; Bacterial Biotransformation [23]: Compound NOT metabolized; Bacterial Biotransformation [24]: Compound metabolized; Bacterial Biotransformation [25]: Compound NOT metabolized; Bacterial Biotransformation [26]: Compound NOT metabolized; Bacterial Biotransformation [27]: Compound metabolized; Bacterial Biotransformation [28]: Compound NOT metabolized; Bacterial Biotransformation [29]: Compound NOT metabolized; Bacterial Biotransformation [30]: Compound metabolized
Compound metabolized	Compound metabolized	Compound metabolized	Compound metabolized	Compound metabolized	Compound metabolized	Compound NOT metabolized	Compound metabolized	Compound metabolized	Compound metabolized	Compound metabolized	Compound metabolized	Compound metabolized	Compound metabolized	Compound metabolized	Compound NOT metabolized	Compound NOT metabolized	Compound metabolized	Compound metabolized	Compound metabolized	Cn1cnc([N+](=O)[O-])c1Sc1ncnc2nc[nH]c12 [AZATHIOPRINE]	Bacterial Biotransformation [21]: Compound metabolized; Bacterial Biotransformation [22]: Compound NOT metabolized; Bacterial Biotransformation [23]: Compound metabolized; Bacterial Biotransformation [24]: Compound NOT metabolized; Bacterial Biotransformation [25]: Compound NOT metabolized; Bacterial Biotransformation [26]: Compound metabolized; Bacterial Biotransformation [27]: Compound metabolized; Bacterial Biotransformation [28]: Compound NOT metabolized; Bacterial Biotransformation [29]: Compound metabolized; Bacterial Biotransformation [30]: Compound metabolized

Structure (SMILES)	Bacterial Biotransformation [1]	Bacterial Biotransformation [2]	Bacterial Biotransformation [3]	Bacterial Biotransformation [4]	Bacterial Biotransformation [5]	Bacterial Biotransformation [6]	Bacterial Biotransformation [7]	Bacterial Biotransformation [8]	Bacterial Biotransformation [9]	Bacterial Biotransformation [10]	Bacterial Biotransformation [11]	Bacterial Biotransformation [12]	Bacterial Biotransformation [13]	Bacterial Biotransformation [14]	Bacterial Biotransformation [15]	Bacterial Biotransformation [16]	Bacterial Biotransformation [17]	Bacterial Biotransformation [18]	Bacterial Biotransformation [19]	Bacterial Biotransformation [20]	also measured
CCOC(=O)C1=C(COCCN)NC(C)=C(C(=O)OC)C1c1ccccc1Cl (stereo not given) [AMLODIPINE]	Compound NOT metabolized	Compound NOT metabolized	Compound NOT metabolized	Compound NOT metabolized	Compound NOT metabolized	Compound NOT metabolized	Compound NOT metabolized	Compound NOT metabolized	Compound NOT metabolized	Compound NOT metabolized	Compound NOT metabolized	Compound NOT metabolized	Compound NOT metabolized	Compound NOT metabolized	Compound NOT metabolized	Compound NOT metabolized	Compound NOT metabolized	Compound NOT metabolized	Compound metabolized	Compound metabolized	Bacterial Biotransformation [21]: Compound NOT metabolized; Bacterial Biotransformation [22]: Compound NOT metabolized; Bacterial Biotransformation [23]: Compound NOT metabolized; Bacterial Biotransformation [24]: Compound NOT metabolized; Bacterial Biotransformation [25]: Compound NOT metabolized; Bacterial Biotransformation [26]: Compound NOT metabolized; Bacterial Biotransformation [27]: Compound NOT metabolized; Bacterial Biotransformation [28]: Compound NOT metabolized; Bacterial Biotransformation [29]: Compound NOT metabolized; Bacterial Biotransformation [30]: Compound NOT metabolized
